Measured values published in patent US12552825B2 (Zikani Therapeutics, Inc., priority 2019, dated 2026).
In brackets after ≈: the same amount, converted by molar mass.

How the values were obtained:
Type in all cases: cell-based
S. aureus MP-12 = experiment: microbe, parasite or virus in culture; details: Staphylococcus aureus, MP12, read-out: MIC S. aureus MP-12
E. coli MP-4 = experiment: MIC determination by CLSI broth dilution, E. coli MP-4; details: Escherichia coli, MP4, CLSI broth dilution; strain MP-4
K. pneumoniae MP-546 = experiment: MIC determination by CLSI broth dilution, K. pneumoniae MP-546; details: Klebsiella pneumoniae, MP546, CLSI broth dilution; strain MP-546
K. pneumoniae MP-648 = experiment: MIC determination by CLSI broth dilution, K. pneumoniae MP-648; details: Klebsiella pneumoniae, MP648, CLSI broth dilution; strain MP-648
P. aeruginosa MP-3 = experiment: MIC determination by CLSI broth dilution, P. aeruginosa MP-3; details: Pseudomonas aeruginosa, MP3, strain MP-3
A. baumannii MP-15 = experiment: MIC determination by CLSI broth dilution, A. baumannii MP-15; details: Acinetobacter baumannii, MP15, strain MP-15, read-out: MIC A. baumanii MP-15

Row | SMILES | MIC (S. aureus MP-12) | MIC (E. coli MP-4) | MIC (K. pneumoniae MP-546) | MIC (K. pneumoniae MP-648) | MIC (P. aeruginosa MP-3) | MIC (A. baumannii MP-15)
1 | CO[C@]1(C)C[C@@H](C)CN(C)[C@@H](CCCN2CC[C@H](F)C2)COC(=O)C(C)(C)C(=O)[C@H](C)[C@H]1O[C@@H]1O[C@H](C)C[C@H](N(C)C)[C@H]1O [Compound 125, (3S,6R,8R,9R,10R)-9-(((2S,3R,4S,6R)-4-(dimethylamino)-3-hydroxy-6-methyltetrahydro-2H-pyran-2-yl)oxy)-3-(3-((S)-3-fluoropyrrolidin-1-yl)propyl)-8-methoxy-4,6,8,10,12,12-hexamethyl-1-oxa-4-azacyclotridecane-11,13-dione] | 4 to 32 µg/mL (≈ 6.35 to 50.8 µM) | < 4 µg/mL | < 4 µg/mL | 4 to 32 µg/mL (≈ 6.35 to 50.8 µM) | > 32 µg/mL | > 32 µg/mL
2 | CCCN1C[C@H](C)C[C@@](C)(OC)[C@H](O[C@@H]2O[C@H](C)C[C@H](N(C)C)[C@H]2O)[C@@H](C)C(=O)C(C)(C)C(=O)OC[C@@H]1CCCN1Cc2ccccc2C1 [Compound 126, (3S,6R,8R,9R,10R)-9-(((2S,3R,4S,6R)-4-(dimethylamino)-3-hydroxy-6-methyltetrahydro-2H-pyran-2-yl)oxy)-3-(3-(isoindolin-2-yl)propyl)-8-methoxy-6,8,10,12,12-pentamethyl-4-propyl-1-oxa-4-azacyclotridecane-11,13-dione] | < 4 µg/mL | < 4 µg/mL | < 4 µg/mL | < 4 µg/mL | > 32 µg/mL | 4 to 32 µg/mL (≈ 5.81 to 46.5 µM)
3 | CCCN1C[C@H](C)C[C@@](C)(OC)[C@H](O[C@@H]2O[C@H](C)C[C@H](N(C)C)[C@H]2O)[C@@H](C)C(=O)C(C)(C)C(=O)OC[C@@H]1CCCN1CCCC1 [Compound 127, (3S,6R,8R,9R,10R)-9-(((2S,3R,4S,6R)-4-(dimethylamino)-3-hydroxy-6-methyltetrahydro-2H-pyran-2-yl)oxy)-8-methoxy-6,8,10,12,12-pentamethyl-4-propyl-3-(3-(pyrrolidin-1-yl)propyl)-1-oxa-4-azacyclotridecane-11,13-dione] | 4 to 32 µg/mL (≈ 6.25 to 50 µM) | < 4 µg/mL | < 4 µg/mL | < 4 µg/mL | > 32 µg/mL | > 32 µg/mL
4 | CO[C@]1(C)C[C@@H](C)CN(C)[C@@H](CCCN2CCC(C)(C)CC2)COC(=O)C(C)(C)C(=O)[C@H](C)[C@H]1O[C@@H]1O[C@H](C)C[C@H](N(C)C)[C@H]1O [Compound 128, (3S,6R,8R,9R,10R)-9-(((2S,3R,4S,6R)-4-(dimethylamino)-3-hydroxy-6-methyltetrahydro-2H-pyran-2-yl)oxy)-3-(3-(4,4-dimethylpiperidin-1-yl)propyl)-8-methoxy-4,6,8,10,12,12-hexamethyl-1-oxa-4-azacyclotridecane-11,13-dione] | 4 to 32 µg/mL (≈ 6.12 to 48.9 µM) | < 4 µg/mL | < 4 µg/mL | < 4 µg/mL | > 32 µg/mL | > 32 µg/mL
5 | CCN1C[C@H](C)C[C@@](C)(OC)[C@H](O[C@@H]2O[C@H](C)C[C@H](N(C)C)[C@H]2O)[C@@H](C)C(=O)C(C)(C)C(=O)OC[C@@H]1CCCN1CCCCC1 [Compound 129, (3S,6R,8R,9R,10R)-9-(((2S,3R,4S,6R)-4-(dimethylamino)-3-hydroxy-6-methyltetrahydro-2H-pyran-2-yl)oxy)-4-ethyl-8-methoxy-6,8,10,12,12-pentamethyl-3-(3-(piperidin-1-yl)propyl)-1-oxa-4-azacyclotridecane-11,13-dione] | 4 to 32 µg/mL (≈ 6.25 to 50 µM) | < 4 µg/mL | < 4 µg/mL | < 4 µg/mL | > 32 µg/mL | > 32 µg/mL
6 | CO[C@]1(C)C[C@@H](C)CN(C)[C@H](C[C@H]2C[C@H](N(C)CC3CC3)C2)COC(=O)C(C)(C)C(=O)[C@H](C)[C@H]1O[C@@H]1O[C@H](C)C[C@H](N(C)C)[C@H]1O [Compound 138, (3R,6R,8R,9R,10R)-3-(((1r,3S)-3-((cyclopropylmethyl)(methyl)amino)cyclobutyl)methyl)-9-(((2S,3R,4S,6R)-4-(dimethylamino)-3-hydroxy-6-methyltetrahydro-2H-pyran-2-yl)oxy)-8-methoxy-4,6,8,10,12,12-hexamethyl-1-oxa-4-azacyclotridecane-11,13-dione] | < 4 µg/mL | < 4 µg/mL | < 4 µg/mL | < 4 µg/mL | > 32 µg/mL | > 32 µg/mL
7 | CCN1C[C@H](C)C[C@@](C)(OC)[C@H](O[C@@H]2O[C@H](C)C[C@H](N(C)C)[C@H]2O)[C@@H](C)C(=O)C(C)(C)C(=O)OC[C@H]1CCCN1CCCCC1 [Compound 140, (3R,6R,8R,9R,10R)-9-(((2S,3R,4S,6R)-4-(dimethylamino)-3-hydroxy-6-methyltetrahydro-2H-pyran-2-yl)oxy)-4-ethyl-8-methoxy-6,8,10,12,12-pentamethyl-3-(3-(piperidin-1-yl)propyl)-1-oxa-4-azacyclotridecane-11,13-dione] | 4 to 32 µg/mL (≈ 6.25 to 50 µM) | < 4 µg/mL | < 4 µg/mL | < 4 µg/mL | > 32 µg/mL | > 32 µg/mL
